# Measured values as given in patent publication US5100905A, “Method for inhibiting growth of bacteria, fungi or algae by treatment with biocide composition” (Rohm and Haas Company, priority 1991, dated 1992).
# Several values for one entry are separate records, joined by “and”; a condition that tells them apart may be missing. Equal values may be shown once.
# Tests used:
# skin of guinea pigs = assay: Sensitization study, closed-patch test of Buehler; type: in vivo, guinea pig
# Protocol: The study was conducted to determine the sensitization potential of the synergistic combination of 3.5% 651 and 96.5% 573. The results were compared to the sensitization potential of 886 (containing 75% 651 and 25% 573) and pure 573.
# The closed-patch test of Buehler Current Concepts in Cutaneous Toxicology, (New York: Academic Press 1970), pp. 25-40, is used to investigate the sensitization potential of the materials in the guinea pig. The combination (1.5% total active ingredient) at aqueous concentrations of 1000, 5000, 10000 and 15000 ppm a.i., the 886 (13.9% total active ingredient) at aqueous concentrations of 250, 500 and 750 ppm a.i. and the 573 (solid containing 99.5% total active ingredient) at aqueous concentrations of 5000, 15000 and 30000 ppm a.i. were applied topically to the skin of guinea pigs by means of occluded patches (0.4 ml per patch). All guinea pigs (10 per group at each concentration) received a total of ten 6-hr induction exposures over a 22 day period. In addition, a group of guinea pigs were treated with dry patches only and served as the naive control group. Two weeks after the last induction treatment guinea pigs induced with the combination were challenged with 3 concentrations of the combination in distilled water (1000, 5000 and 15000 ppm a.i.), those induced with 886 were challenged with 3 concentrations of 886 in distilled water (100, 250 and 750 ppm a.i.) and those induced with 573 alone were challenged with 3 concentrations of 573 in distilled water (1000, 5000 and 15000 ppm a.i.). Twenty-four (24) and 48 hr after the challenge doses, the application sites were examined for erythema reactions and graded from 0 to 3 in accordance with a pre-established scoring system. Reactions graded 1 or greater were judged to be skin sensitization reactions.
# ^a Guinea pigs received ten (6 hr.) induction exposures of the ten
# materials (0.4 ml per exposure) over a 22 day period.
# ^b All guinea pigs received 0.4 ml of challenge doses as specified tw
# weeks after the last induction dose.
# ^c Guinea pigs received sham treatment only.
# [1] = test system: mixture of 12 microorganisms; assay: Calculation of synergism of 573 and 651 combinations (Kull et al. method); type: cell-based; conditions: for SI (synergy index, Qa'/QA + Qb'/.75 QB): <1 synergism, 1 additivity, >1 antagonism
# Protocol: Each single culture was inoculated to TSB agar slants and incubated for 2 days at 30° C. for C. albicans and all bacteria except E. coli and S. aureus, which were at 37° C., and incubated for 10-14 days at 25° C. for fungal cultures. The bacteria and fungi were then washed off the slants with phosphate buffer (0.125 M, pH 7.2) and inoculated into each test tube containing a given concentration and ratio of 573 and 886 to make final cell concentration of about 2×10^7 bacteria and 2×10^6 fungi per ml. […] Seven days after inoculation, 5 microliter of sample from each test tube (containing about 10^5 bacteria and 10^4 fungi from original inoculation) was removed and assessed for viable organisms by 1:50 dilution into TSB medium and checked for regrowth. No viable organisms were detected from the test tubes where MICs were observed. […] Each test tube was reinoculated 2 more times (a total of 3 inoculations) to determine the capacity and the longlasting activity of the combinations.
# Synergism is determined by the industrially accepted method described by Kull, F. C.; Eisman, P. C.; Sylvestrowicz, H. D. and Mayer, R. L. in Applied Microbiology 9:538-541 (1961) using the ratio determined by [formula] wherein QA=concentration of compound A in parts per million (ppm), acting alone, which produced an end point
# Qa=concentration of compound A in ppm, in the mixture, which produced an end point
# QB=concentration of compound B in ppm, acting alone, which produced an end point
# Qb=concentration of compound B in ppm, in the mixture, which produced an end point
# When the sum of Qa/QA plus Qb/QB is greater than one, antagonism is indicated. When the sum is equal to one, additivity is indicated, and when the sum is less than one, synergism is indicated.
# As shown, a wide range of concentration and ratios was tested. More importantly all the critical end-point activities for the combinations were covered. […] Thus, the end-point activities are based on the minimum concentrations of a given ratio of combination product that inhibit all three inoculations.
# The end-point activity (MIC in ppm) is taken from Table 1.
# QA is the end-point activity of 573 alone
# QB is the end-point activity of 886 alone
# Qa is the end-point activity 573 in the mixture of 573 and 886
# Qb is the end-point activity of 886 in the mixture of 573 and 886.
# Since 886 is 25% 573 and 75% 651, the total 573 (Qa') in the combinations is Qa+25% Qb, and the total 651 (Qb') in the combinations is 75% Qb. Total concentration of 573 and 651 in the mixture is Qa' and Qb'. The % 573 in the mixture is Qa'/(Qa'+Qb'), and %651 in the mixture is Qb'/(Qa'+Qb'.)
# Therefore, the calculation of synergy index (SI) is Qa'/QA+Qb'/.75 QB. The most preferred synergy for 573 and 651 combinations is seen at 2.3%-4.5% of 651. Taking the synergy index of less than 0.5 as most significant, then a range of 2.3% to 8.5% of 651 in the 573/651 combinations is preferred.
smiles,measurement,setting,value
"Cn1sccc1=O [compound 573, 2-methyl-4-isothiazolin-3-one]",Overall incidence of responses,"skin of guinea pigs; 5000 and 15000 ppm induction, 1000, 5000 and 15000 ppm challenge",7 out of a possible 60 responses
same,Erythema,"skin of guinea pigs; induction 5000 and 15000 ppm a.i., challenge 1000 ppm a.i.",no erythema was observed
same,Erythema responses of 1 or greater at 24 and/or 48 hours,"skin of guinea pigs; induction 5000 ppm, challenge 1000 ppm (573)",0/10
same,Erythema responses of 1 or greater at 24 and/or 48 hours,"skin of guinea pigs; induction 5000 ppm, challenge 5000 ppm (573)",1/10
same,Erythema responses of 1 or greater at 24 and/or 48 hours,"skin of guinea pigs; induction 5000 ppm, challenge 15000 ppm (573)",2/10
same,Erythema responses of 1 or greater at 24 and/or 48 hours,"skin of guinea pigs; induction 15000 ppm, challenge 1000 ppm (573)",0/10
same,Erythema responses of 1 or greater at 24 and/or 48 hours,"skin of guinea pigs; induction 15000 ppm, challenge 5000 ppm (573)",1/10
same,Erythema responses of 1 or greater at 24 and/or 48 hours,"skin of guinea pigs; induction 15000 ppm, challenge 15000 ppm (573)",3/10
same,Erythema responses of 1 or greater at 24 and/or 48 hours,"skin of guinea pigs; induction 30000 ppm, challenge 1000 ppm",1/9
same,Erythema responses of 1 or greater at 24 and/or 48 hours,"skin of guinea pigs; induction 30000 ppm, challenge 5000 ppm",2/9
same,Erythema responses of 1 or greater at 24 and/or 48 hours,"skin of guinea pigs; induction 30000 ppm, challenge 15000 ppm",3/9
same,Erythema responses of 1 or greater at 24 and/or 48 hours,"skin of guinea pigs; naive control (sham induction), challenge 15000 ppm 573",No erythema was observed and 0/10
same,Qa'/QA,[1]; Expt. 1,1.00
same,Qb'/QB* (QB* = QB × 75%),[1]; Expt. 1,0.00
same,Total 573 Qa' (Qa + 25% Qb) at end-point,[1]; Expt. 1,500.0 ppm
same,Total ppm Qa' + Qb' at end-point,[1]; Expt. 1,500.0 ppm
same,"SI (synergy index, Qa'/QA + Qb'/.75 QB)",[1]; Expt. 1,1.00
same,Qa'/QA,[1]; Expt. 2,1.00
same,Qb'/QB* (QB* = QB × 75%),[1]; Expt. 2,0.00
same,Total 573 Qa' (Qa + 25% Qb) at end-point,[1]; Expt. 2,125.0 ppm
same,Total ppm Qa' + Qb' at end-point,[1]; Expt. 2,125.0 ppm
same,"SI (synergy index, Qa'/QA + Qb'/.75 QB)",[1]; Expt. 2,1.00
